pIC50: −log10 of the molar value. Counter-ions that a name gives are not always drawn. Like-named read-outs stand apart in the source and are kept apart here. Blank lines part the entries; values can stand above or below the molecule they belong to.
Assays:
[1] = Rat non-crossover PK study of Example 92; type: in vivo
Experimental: In a rat (SD, male, non-fasted) non-crossover PK study, Example 92 was dosed at 1 mg/kg (DMA: 20% HPBCD=5:95, solution) via i.v. administration (N=2) and 1 mg/kg (0.5% Na CMC+0.5% Tween80, solution) via oral gauge (p.o.) (N=2).

[2] = tested on: Type II Collagen-Induced Arthritis (CIA) in female Lewis rats; experiment: Rat type II collagen-induced arthritis (CIA) model; type: in vivo; details: 15 mg/kg PO QD
Experimental: Female Lewis rats were injected intradermally/subcutaneously (ID/SC) with porcine type II collagen to induce arthritis on Study Days 0 & 7. Rats were then dosed once daily (QD) on Study Days 0-24 (developing) or Days 6-24 (semi-established) by the oral (PO) route with Example 92 (15 mg/kg) or vehicle (0.5% Na CMC+0.5% Tween80, suspension). Rats were euthanized for necropsy on Study Day 25. Efficacy evaluation was based daily ankle diameter caliper measurements, terminal hind paw weights, and histopathology of ankles and knees.

[3] = Rat non-crossover cassette PK study of Example 36; type: in vivo; details: rat SD male non-fasted, 2 mg/kg p.o.
Experimental: In a rat (SD, male, non-fasted) non-crossover cassette PK study, Example 36 was dosed at 0.25 mg/kg via i.v. administration (N=3) and 2 mg/kg via oral gauge (p.o.) (N=3) with other 3 compounds.

[4] = biological target: PRMT5/MEP50 complex (Homo sapiens, UniProt O14744); experiment: Biochemical assay: PRMT5/MEP50 methylation of histone H2A with 3H-SAM, filter plate scintillation
Sequence of PRMT5/MEP50 complex (O14744 whole entry, species assumed): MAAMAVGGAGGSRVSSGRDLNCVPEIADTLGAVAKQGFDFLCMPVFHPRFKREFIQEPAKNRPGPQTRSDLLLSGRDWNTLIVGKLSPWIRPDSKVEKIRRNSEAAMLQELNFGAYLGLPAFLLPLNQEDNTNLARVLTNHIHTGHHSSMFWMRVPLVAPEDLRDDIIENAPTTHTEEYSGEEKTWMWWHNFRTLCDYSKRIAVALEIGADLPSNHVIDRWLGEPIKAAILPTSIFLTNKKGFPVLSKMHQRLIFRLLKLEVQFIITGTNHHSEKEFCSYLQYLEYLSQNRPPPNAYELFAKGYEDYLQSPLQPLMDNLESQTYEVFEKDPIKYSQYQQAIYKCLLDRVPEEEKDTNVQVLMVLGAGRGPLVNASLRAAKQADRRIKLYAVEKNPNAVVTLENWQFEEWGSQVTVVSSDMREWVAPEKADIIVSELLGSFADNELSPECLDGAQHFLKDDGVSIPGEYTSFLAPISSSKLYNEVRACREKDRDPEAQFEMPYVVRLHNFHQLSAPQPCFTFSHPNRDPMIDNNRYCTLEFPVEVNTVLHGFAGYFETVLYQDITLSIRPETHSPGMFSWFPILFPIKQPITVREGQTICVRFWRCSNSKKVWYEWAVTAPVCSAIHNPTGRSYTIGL
Sequence of PRMT5/MEP50 complex (Q9BQA1 whole entry partner, species assumed): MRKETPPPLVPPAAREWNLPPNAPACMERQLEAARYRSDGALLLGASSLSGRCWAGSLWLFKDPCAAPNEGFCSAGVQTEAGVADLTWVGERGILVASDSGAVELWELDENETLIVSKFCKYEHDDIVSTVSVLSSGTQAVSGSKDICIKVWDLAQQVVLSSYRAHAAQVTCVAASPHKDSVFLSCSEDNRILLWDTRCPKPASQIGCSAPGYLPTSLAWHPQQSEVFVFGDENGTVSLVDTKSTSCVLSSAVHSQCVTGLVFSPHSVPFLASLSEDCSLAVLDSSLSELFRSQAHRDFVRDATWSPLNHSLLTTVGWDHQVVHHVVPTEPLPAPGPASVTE
Experimental: Compounds were solubilized, and 3-fold diluted in 100% DMSO. […] Standard reactions were performed in a total volume of 50 μl in assay buffer, with histone H2A (5 μM final) as substrate. To this was added the PRMT5/MEP50 complex diluted to provide a final assay concentration of 5 nM and the compounds were allowed to preincubate for 15 to 20 minutes at room temperature. The reaction was initiated by adding S-[3H-methyl]-adenosyl-L-methionine (PerkinElmer) to final concentration of 1 μM. Following a 60 minutes incubation at 30° C., the reaction was stopped by adding 100 μL of 20% TCA. Each reaction was spotted onto filter plate (MultiScreen FB Filter Plate, Millipore), and washed 5 times with PBS buffer, Scintillation fluid was added to the filter plate and read in a scintillation counter. IC50 values were determined by fitting the data to the standard 4 parameters with Hill Slope using GraphPad Prism software.

[5] = tested on: Symmetric Di-Methyl Arginine (sDMA) marks in Granta-519 cell line; experiment: Cellular assay: Western blot of sDMA (SmD3me2s) and H3R8me2s marks in Granta cells, 3 days, IC50; type: cell-based; details: Homo sapiens, 72 h, Table 7
[6] = developing mode (Days 0-24), P<0.001

average dose normalized AUC0-inf ([1]; rat SD male non-fasted, 1 mg/kg p.o.): 2184 ng·kg·h/mL/mg
Compound: CO/N=c1\[nH]cnc2c1ncn2[C@@H]1O[C@H]([C@](C)(O)c2ccc(Cl)c(Cl)c2)[C@@H](O)[C@H]1O [Example 92, (2S,3S,4R,5R)-2-[(1R)-1-(3,4-dichlorophenyl)-1-hydroxy-ethyl]-5-[(6Z)-6-methoxyimino-1H-purin-9-yl]tetrahydrofuran-3,4-diol]
histopathology parameters in ankles and knees ([2]; both modes, versus vehicle controls): significantly inhibited all histopathology parameters
reduction in ankle diameter [2, 6]: 63%
reduction in hind paw weight [2, 6]: 67%
reduction in hind paw weight ([2]; semi-established mode (Days 6-24), P<0.01): 51%
reduction in ankle diameter ([2]; semi-established mode (Days 6-24), P<0.05): 34%

average dose normalized AUC [3]: 1738 ng·kg·h/mL/mg
Compound: CO/N=c1/nc[nH]c2c1ccn2[C@@H]1O[C@H]([C@H](O)c2ccc(Cl)cc2)[C@@H](O)[C@H]1O [Example 36, (2R,3S,4R,5R)-2-[(R)-(4-chlorophenyl)-hydroxy-methyl]-5-(-4-methoxyimino-1H-pyrrolo[2,3-d]pyrimidin-7-yl]tetrahydrofuran-3,4-diol]

pIC50 ([4]; Table 7, histone H2A substrate, 5 nM enzyme, read-out: PRMT5/MEP50 IC50): 7.54
pIC50 [5]: 7.01
Compound: CCO/N=c1\nc[nH]c2c1ccn2[C@@H]1OC([C@](C)(O)c2ccc(Cl)cc2)[C@@H](O)[C@H]1O (stereo partly drawn) [Example 83, 7-((2R,3R,4S)-5-((R)-1-(4-chlorophenyl)-1-hydroxyethyl)-3,4-dihydroxytetrahydrofuran-2-yl)-1,7-dihydro-4H-pyrrolo[2,3-d]pyrimidin-4-one O-ethyl oxime]

Compound: CO/N=c1\nc[nH]c2c1ccn2[C@@H]1O[C@H]([C@H](O)c2ccc(Cl)c(Cl)c2)[C@@H](O)[C@H]1O [Example 69, 7-((2R,3R,4S,5R)-5-((R)-(3,4-dichlorophenyl)(hydroxy)methyl)-3,4-dihydroxytetrahydrofuran-2-yl)-1,7-dihydro-4H-pyrrolo[2,3-d]pyrimidin-4-one O-methyl oxime hydrochloride]
pIC50 [5]: 7.55

pIC50 ([4]; Table 9, compounds of Formula V and Formula VI, read-out: PRTMT5/MEP50 IC50): 7.43
Compound: C[C@@H](c1ccc(Cl)cc1)[C@H]1O[C@@H](n2ccc3c(N)ncnc32)[C@H](O)[C@@H]1O [Example 5-C, (2R,3R,4S,5R)-2-(4-amino-7H-pyrrolo[2,3-d]pyrimidin-7-yl)-5-((S)-1-(4-chlorophenyl)ethyl)tetrahydrofuran-3,4-diol hydrochloride]

metabolite in blood samples ([1]; rat, after dosing of Example 92): detected
average of AUC0-int of metabolite ([1]; rat, metabolite after dosing of Example 92): 284 ng·kg·h/mL/mg
Compound: C[C@@](O)(c1ccc(Cl)c(Cl)c1)[C@H]1O[C@@H](n2cnc3c(N)ncnc32)[C@H](O)[C@@H]1O [Example 1-C, (2R,3R,4S,5S)-2-(6-amino-9H-purin-9-yl)-5-((R)-1-(3,4-dichlorophenyl)-1-hydroxyethyl)tetrahydrofuran-3,4-diol]

— patent publication US20220218732A1, “Selective Inhibitors Of Protein Arginine Methyltransferase 5 (PRMT5)” (Prelude Therapeutics, Incorporated, priority 2019, published 2022)
